According to patent US8815306B2, “Methods and compositions for promoting bone and joint health” (Metaproteomics, LLC, priority 2007, dated 2014):

system: TNFα induced MMP-13 expression; assay: TNFα induced MMP-13 expression in human chondrocyte cell line SW1353; settings: Example 2; 20, 10, 5 and 1 ug/ml; SW1353
Experimental: The SW1353 human chondrocyte cell line was used as described below.
Cells were grown and subcultured in 96-well plates at a density of 8×10^4 cells per well and allowed to reach ˜80% confluence overnight. Test compounds in medium were added to the cells at a final concentration of 0.1% DMSO. Following one hour of incubation with the test compounds, TNFα (10 ng/ml) or medium alone was added to the cell wells and incubation continued for 24 hours. The supernatant media was subsequently collected for MMP-13 determination.
Determination of MMP-13: A commercial, non-radioactive procedure for quantification of MMP-13 was used according to the manufacturer's instructions using MMP-13 as a standard. A minimum of 3 wells were used for each test condition.
The amount of MMP-13 release into the medium was determined by comparison of the MMP-13 generated in the presence or absence of TNFα and test compounds. A minimum of three wells were used for each test condition. The basal MMP-without 13 levels without TNFα stimulation was subtracted from TNF stimulation to determine the TNFα induced MMP-13 expression in the medium and the levels normalized to 100%. The percent activity of test compounds was measured in the presence of TNFα and referred as TNFα induced MMP-13 expression.
A minimum of three concentrations were used to determine the dose-response curve and a median inhibitory concentration (IC50).

Structure (SMILES) | Dose dependence of inhibition of TNFα induced MMP-13 expression
C[C@]12CC[C@H](O)CC1=CC[C@@H]1[C@@H]2CC[C@]2(C)C(=O)CC[C@@H]12 [DHEA, reference compound] | dose dependently (20, 10, and 1 ug/ml) inhibited
CC(C)Oc1ccc2c(=O)c(-c3ccccc3)coc2c1 [Ipriflavone, reference compound] | dose dependently (20, 10, and 1 ug/ml) inhibited
Oc1ccc(C=Cc2cc(O)cc(O)c2)cc1 [Resveratrol] | dose dependently (20, 10, and 1 ug/ml) inhibited

same assay, conditions: Homo sapiens, SW1353, 24 h, read-out: TNFa Stimulated MMP-13 average, Table 4; 10 ug/mL; SW1353, TNFα 10 ng/ml 24 h; TNF pos = 100%

Structure (SMILES) | activity at 10 µg/mL
CC1(C)CC[C@]2(C(=O)O)CC[C@]3(C)C(=CC[C@@H]4[C@@]5(C)CC[C@H](O)C(C)(C)[C@@H]5CC[C@]43C)[C@@H]2C1 [Oleanolic Acid] | 17%

same assay, conditions: Homo sapiens, SW1353, 24 h, read-out: TNFa Stimulated MMP-13 average, Table 4; 20 ug/mL; SW1353, TNFα 10 ng/ml 24 h; TNF pos = 100%

Structure (SMILES) | activity at 20 µg/mL
O=C(CCc1ccc(O)cc1)c1c(O)cc(O)cc1O[C@@H]1O[C@H](CO)[C@@H](O)[C@H](O)[C@H]1O [Phloridzin] | 77%
N[C@H]1C(O)O[C@H](CO)[C@@H](O)[C@@H]1O (stereo partly drawn) [Glucosamine] | 77%
O=C1O[C@H]([C@@H](O)CO)C(O)=C1O [Vitamin C] | 370%
CCCCC/C=C\C/C=C\CCCCCCCC(=O)O [Linoleic Acid] | 23%
CC(C)Oc1ccc2c(=O)c(-c3ccccc3)coc2c1 [Ipriflavone, reference compound] | -42%
COc1ccc2cc3[n+](cc2c1OC)CCc1cc2c(cc1-3)OCO2 [Berberine, 7,8,13,13a-tetrahydro-9,10-dimethoxy-2,3-(methylenedioxy)-berbinium] | -39%
O=c1c(O)c(-c2ccc(O)c(O)c2)oc2cc(O)cc(O)c12 [Quercetin] | -65%
Oc1ccc(C=Cc2cc(O)cc(O)c2)cc1 [Resveratrol] | -42%

same assay, conditions: Homo sapiens, SW1353, 24 h, read-out: TNFa Stimulated MMP-13 average, Table 5; 1 ug/mL; SW1353; TNF pos = 100%

Structure (SMILES) | activity at 1 µg/mL
CC(C)Oc1ccc2c(=O)c(-c3ccccc3)coc2c1 [Ipriflavone, reference compound] | 86%
Oc1ccc(C=Cc2cc(O)cc(O)c2)cc1 [Resveratrol] | 96%

same assay, conditions: Homo sapiens, SW1353, 24 h, read-out: TNFa Stimulated MMP-13 average, Table 5; 5 ug/mL; SW1353; TNF pos = 100%

Structure (SMILES) | activity at 5 µg/mL
CC(C)Oc1ccc2c(=O)c(-c3ccccc3)coc2c1 [Ipriflavone, reference compound] | 20%
Oc1ccc(C=Cc2cc(O)cc(O)c2)cc1 [Resveratrol] | 88%

same assay, conditions: Homo sapiens, SW1353, 24 h, read-out: TNFa Stimulated MMP-13 average, Table 5; 10 ug/mL; SW1353; TNF pos = 100%

Structure (SMILES) | activity at 10 µg/mL
CC(C)Oc1ccc2c(=O)c(-c3ccccc3)coc2c1 [Ipriflavone, reference compound] | 0%
Oc1ccc(C=Cc2cc(O)cc(O)c2)cc1 [Resveratrol] | 53%

same assay, conditions: Homo sapiens, SW1353, 24 h, read-out: TNFa Stimulated MMP-13 average, Table 5; 20 ug/mL; SW1353; TNF pos = 100%

Structure (SMILES) | activity at 20 µg/mL
CC(C)Oc1ccc2c(=O)c(-c3ccccc3)coc2c1 [Ipriflavone, reference compound] | 3%
Oc1ccc(C=Cc2cc(O)cc(O)c2)cc1 [Resveratrol] | 45%

same assay, conditions: Table 4; 20 ug/mL; SW1353, TNFα 10 ng/ml 24 h; TNF pos = 100%

Structure (SMILES) | TNFa Stimulated MMP-13 average
C[C@]12CC[C@H](O)CC1=CC[C@@H]1[C@@H]2CC[C@]2(C)C(=O)CC[C@@H]12 [DHEA, reference compound] | −2%

same assay, conditions: Table 5; 1 ug/mL; SW1353; TNF pos = 100%

Structure (SMILES) | TNFa Stimulated MMP-13 average
C[C@]12CC[C@H](O)CC1=CC[C@@H]1[C@@H]2CC[C@]2(C)C(=O)CC[C@@H]12 [DHEA, reference compound] | 111%

same assay, conditions: Table 5; 1 ug/mL; n = 1; SW1353; TNF pos = 100%

Structure (SMILES) | TNFa Stimulated MMP-13 n = 1
N[C@H]1C(O)O[C@H](CO)[C@@H](O)[C@@H]1O (stereo partly drawn) [Glucosamine] | 126%
COc1ccc2cc3[n+](cc2c1OC)CCc1cc2c(cc1-3)OCO2 [Berberine, 7,8,13,13a-tetrahydro-9,10-dimethoxy-2,3-(methylenedioxy)-berbinium] | −1%
CC1(C)CC[C@]2(C(=O)O)CC[C@]3(C)C(=CC[C@@H]4[C@@]5(C)CC[C@H](O)C(C)(C)[C@@H]5CC[C@]43C)[C@@H]2C1 [Oleanolic Acid] | 95%

same assay, conditions: Table 5; 5 ug/mL; SW1353; TNF pos = 100%

Structure (SMILES) | TNFa Stimulated MMP-13 average
C[C@]12CC[C@H](O)CC1=CC[C@@H]1[C@@H]2CC[C@]2(C)C(=O)CC[C@@H]12 [DHEA, reference compound] | 108%

same assay, conditions: Table 5; 5 ug/mL; n = 1; SW1353; TNF pos = 100%

Structure (SMILES) | TNFa Stimulated MMP-13 n = 1
N[C@H]1C(O)O[C@H](CO)[C@@H](O)[C@@H]1O (stereo partly drawn) [Glucosamine] | 137%
COc1ccc2cc3[n+](cc2c1OC)CCc1cc2c(cc1-3)OCO2 [Berberine, 7,8,13,13a-tetrahydro-9,10-dimethoxy-2,3-(methylenedioxy)-berbinium] | −4%
CC1(C)CC[C@]2(C(=O)O)CC[C@]3(C)C(=CC[C@@H]4[C@@]5(C)CC[C@H](O)C(C)(C)[C@@H]5CC[C@]43C)[C@@H]2C1 [Oleanolic Acid] | 38%

same assay, conditions: Table 5; 10 ug/mL; SW1353; TNF pos = 100%

Structure (SMILES) | TNFa Stimulated MMP-13 average
C[C@]12CC[C@H](O)CC1=CC[C@@H]1[C@@H]2CC[C@]2(C)C(=O)CC[C@@H]12 [DHEA, reference compound] | 64%

same assay, conditions: Table 5; 10 ug/mL; n = 1; SW1353; TNF pos = 100%

Structure (SMILES) | TNFa Stimulated MMP-13 n = 1
N[C@H]1C(O)O[C@H](CO)[C@@H](O)[C@@H]1O (stereo partly drawn) [Glucosamine] | 107%
COc1ccc2cc3[n+](cc2c1OC)CCc1cc2c(cc1-3)OCO2 [Berberine, 7,8,13,13a-tetrahydro-9,10-dimethoxy-2,3-(methylenedioxy)-berbinium] | −4%
CC1(C)CC[C@]2(C(=O)O)CC[C@]3(C)C(=CC[C@@H]4[C@@]5(C)CC[C@H](O)C(C)(C)[C@@H]5CC[C@]43C)[C@@H]2C1 [Oleanolic Acid] | 43%

same assay, conditions: Table 5; 20 ug/mL; SW1353; TNF pos = 100%

Structure (SMILES) | TNFa Stimulated MMP-13 average
C[C@]12CC[C@H](O)CC1=CC[C@@H]1[C@@H]2CC[C@]2(C)C(=O)CC[C@@H]12 [DHEA, reference compound] | 5%

same assay, conditions: Table 5; 20 ug/mL; n = 1; SW1353; TNF pos = 100%

Structure (SMILES) | TNFa Stimulated MMP-13 n = 1
N[C@H]1C(O)O[C@H](CO)[C@@H](O)[C@@H]1O (stereo partly drawn) [Glucosamine] | 105%
COc1ccc2cc3[n+](cc2c1OC)CCc1cc2c(cc1-3)OCO2 [Berberine, 7,8,13,13a-tetrahydro-9,10-dimethoxy-2,3-(methylenedioxy)-berbinium] | −4%
CC1(C)CC[C@]2(C(=O)O)CC[C@]3(C)C(=CC[C@@H]4[C@@]5(C)CC[C@H](O)C(C)(C)[C@@H]5CC[C@]43C)[C@@H]2C1 [Oleanolic Acid] | 26%

system: sRANKL mediated TRAP activity (osteoclastogenesis), RAW 264.7; assay: sRANKL mediated osteoclastogenesis: TRAP activity in RAW 264.7 cells; settings: 1 ug/mL test compound; RAW 264.7 cells; sRANKL alone normalized to 100%
Experimental: Following overnight incubation with the test compounds, sRANKL (50 ng/ml) or medium alone was added to the cell wells. The medium was replaced after 2 days with test compounds and sRANKL and incubation was continued for 3 additional days.
The cells were washed twice with ice cold PBS and lysed in 150 μl of 0.2% triton x-100 in PBS. TRAP activity in cell lysates was determined by using TRAP solution from the kit (Sigma 387A1 kit), according to the manufacturers instructions. A 100 μl cell lysates was added to 100 μl of TRAP solution in 96 well plate and incubated at 37° C. for 1 hr. The absorbance was measured at 555 nm using a plate reader. The protein concentration was estimated using BCA reagent (Sigma) and the final activity was normalized for equal protein.
Inhibition of TRAP activity was determined by comparison of the TRAP activity in the presence of with and with out test compounds in sRANKL, activated osteoclasts. A minimum of two wells were used for each concentration.
Inhibition of TRAP activity was determined by comparison in the presence of with and with out test compounds in sRANKL activated osteoclasts. A minimum of two wells were used for each concentration. The basal TRAP activity levels with out sRANKL stimulation was subtracted from sRANKL stimulation to get the sRANKL induced TRAP activity and the activity was normalized to 100%. The percent activity of test compounds was measured in the presence of sRANKL and referred as sRANKL induced TRAP activity.
A minimum of three concentrations were used to determine median inhibitory concentration (IC50).

Structure (SMILES) | % TRAP activity average (sRANKL induced TRAP activity)
N[C@H]1C(O)O[C@H](CO)[C@@H](O)[C@@H]1O (stereo partly drawn) [Glucosamine] | 179%
CC(C)Oc1ccc2c(=O)c(-c3ccccc3)coc2c1 [Ipriflavone, reference compound] | 168%
COc1ccc2cc3[n+](cc2c1OC)CCc1cc2c(cc1-3)OCO2 [Berberine, 7,8,13,13a-tetrahydro-9,10-dimethoxy-2,3-(methylenedioxy)-berbinium] | 68%
CC1(C)CC[C@]2(C(=O)O)CC[C@]3(C)C(=CC[C@@H]4[C@@]5(C)CC[C@H](O)C(C)(C)[C@@H]5CC[C@]43C)[C@@H]2C1 [Oleanolic Acid] | 139%
Oc1ccc(C=Cc2cc(O)cc(O)c2)cc1 [Resveratrol] | 117%

same assay, conditions: 5 ug/mL test compound; RAW 264.7 cells; sRANKL alone normalized to 100%

Structure (SMILES) | % TRAP activity average (sRANKL induced TRAP activity)
N[C@H]1C(O)O[C@H](CO)[C@@H](O)[C@@H]1O (stereo partly drawn) [Glucosamine] | 183%
CC(C)Oc1ccc2c(=O)c(-c3ccccc3)coc2c1 [Ipriflavone, reference compound] | 164%
COc1ccc2cc3[n+](cc2c1OC)CCc1cc2c(cc1-3)OCO2 [Berberine, 7,8,13,13a-tetrahydro-9,10-dimethoxy-2,3-(methylenedioxy)-berbinium] | 15%
CC1(C)CC[C@]2(C(=O)O)CC[C@]3(C)C(=CC[C@@H]4[C@@]5(C)CC[C@H](O)C(C)(C)[C@@H]5CC[C@]43C)[C@@H]2C1 [Oleanolic Acid] | 63%
Oc1ccc(C=Cc2cc(O)cc(O)c2)cc1 [Resveratrol] | 17%

same assay, conditions: 10 ug/mL test compound; RAW 264.7 cells; sRANKL alone normalized to 100%

Structure (SMILES) | % TRAP activity average (sRANKL induced TRAP activity)
N[C@H]1C(O)O[C@H](CO)[C@@H](O)[C@@H]1O (stereo partly drawn) [Glucosamine] | 269%
CC(C)Oc1ccc2c(=O)c(-c3ccccc3)coc2c1 [Ipriflavone, reference compound] | 82%
COc1ccc2cc3[n+](cc2c1OC)CCc1cc2c(cc1-3)OCO2 [Berberine, 7,8,13,13a-tetrahydro-9,10-dimethoxy-2,3-(methylenedioxy)-berbinium] | 7%
CC1(C)CC[C@]2(C(=O)O)CC[C@]3(C)C(=CC[C@@H]4[C@@]5(C)CC[C@H](O)C(C)(C)[C@@H]5CC[C@]43C)[C@@H]2C1 [Oleanolic Acid] | 32%
Oc1ccc(C=Cc2cc(O)cc(O)c2)cc1 [Resveratrol] | 16%

same assay, conditions: Mus musculus, RAW264.7, read-out: % TRAP Activity average

Structure (SMILES) | activity at 5 µg/mL | activity at 10 µg/mL
O=C(CCc1ccc(O)cc1)c1c(O)cc(O)cc1O[C@@H]1O[C@H](CO)[C@@H](O)[C@H](O)[C@H]1O [Phloridzin] | 103% | 150%
N[C@H]1C(O)O[C@H](CO)[C@@H](O)[C@@H]1O (stereo partly drawn) [Glucosamine] | 75% | 48%
COc1ccc2cc3[n+](cc2c1OC)CCc1cc2c(cc1-3)OCO2 [Berberine, 7,8,13,13a-tetrahydro-9,10-dimethoxy-2,3-(methylenedioxy)-berbinium] | 4% | -8%
CC1(C)CC[C@]2(C(=O)O)CC[C@]3(C)C(=CC[C@@H]4[C@@]5(C)CC[C@H](O)C(C)(C)[C@@H]5CC[C@]43C)[C@@H]2C1 [Oleanolic Acid] | 61% | 35%
O=c1c(O)c(-c2ccc(O)c(O)c2)oc2cc(O)cc(O)c12 [Quercetin] | 73% | 62%
Oc1ccc(C=Cc2cc(O)cc(O)c2)cc1 [Resveratrol] | 11% | 2%

same assay, conditions: Table 8; 5 ug/mL; RAW 264.7, sRANKL 50 ng/ml; RANKL = 100%

Structure (SMILES) | % TRAP Activity average
C[C@]12CC[C@H](O)CC1=CC[C@@H]1[C@@H]2CC[C@]2(C)C(=O)CC[C@@H]12 [DHEA, reference compound] | 46%

same assay, conditions: Table 8; 10 ug/mL; RAW 264.7, sRANKL 50 ng/ml; RANKL = 100%

Structure (SMILES) | % TRAP Activity average
C[C@]12CC[C@H](O)CC1=CC[C@@H]1[C@@H]2CC[C@]2(C)C(=O)CC[C@@H]12 [DHEA, reference compound] | 33%
